B1: PDGF-BB: platelet derived growth factor-BB, agonist in the lower Boyden chamber and MAPK stimulus (protein, UniProt P01127 82-190, looked up)
Platelet-derived growth …: SLGSLTIAEPAMIAECKTRTEVFEISRRLIDRTNANFLVWPPCVEVQRCSGCCNNRNVQCRPTQVQLRPVQVRKIEIVRKKPIFKKATVTLEDHLACKCETVAAARPVT

Columns and labels:
ERα [1] = assay: Western blot of ERα protein expression in PSMC; assay type: cell-based, porcine; conditions: oligomer 10^−6 mol/L, vs PBS-treated cells
Procedure: (§1) The efficiency and specificity of our antisense sequences to block the targeted protein expression were evaluated by Western blot analysis. Culture medium of confluent PAEC and PSMC (100-mm tissue culture plate) were rinsed with Dulbecco's modified eagle medium (DMEM; Life Technologies Inc., Carlsbad, Calif.) and trypsinized (trypsine-EDTA; Life Technologies). Cells were resuspended in DMEM containing 5% of fetal bovine serum and antibiotics (penicillin and streptomycin, Sigma, St-Louis, Mo.), and a cell count was obtained with a Coulter counter Z1 (Coulter Electronics, Luton, UK). Cells were seeded at 1×10^6 cells/100-mm tissue culture plate (Becton-Dickinson, Rutherford, N.J.), stimulated for 24 h in DMEM, 5% FBS, and antibiotics with or without antisense oligomers (10^−7, 5×10^−7, 10^−6 mol/L) and starved for 48 h in DMEM, 0.1% FBS, and antibiotics with or without antisense oligomers (10^−7, 5×10^−7, 10^−6 mol/L daily) for G0 synchronization. LipofectAnime (5 μg/ml, Life Technology Inc) was used as a transfection reagent only on PSMC. The cells were then grown to confluence for 16 h in DMEM, 5% FBS, and antibiotics with or without antisense oligomers (10^−7, 5×10^−7, 10^−6 mol/L) and starved for 7 h in DMEM, 0.1% FBS, and antibiotics with or without antisense oligomers (10^−7, 5×10^−7, 10^−6 mol/L) to induce an up-regulation of the ER expression. Culture medium was removed, and cells were rinsed twice with ice-cold DMEM. Total proteins were prepared by the addition of 500 μl of lysis buffer containing phenylmethylsulfonyl fluoride 1 mM (Sigma), leupeptin 10 μg/ml (Sigma), aprotinin 30 μg/mi (Sigma), and NaVO3 1 mM (Sigma). Plates were incubated at 4° C. for 30 min and scraped, and the protein concentration was determined with a Bio-Rad protein kit (Bio-Rad, Hercules, Calif.). Same protein quantity for each cell type were dissolved in Laemmli's buffer, boiled for 5 min in reducing conditions, separated by a 10% gradient SDS-PAGE (Protean II kit; Bio-Rad), and transblotted onto a 0.45-μm polyvinylidene difluoride membranes (Millipore Corp., Bedford, Mass.). […]

ERα [2] = assay: Western blot of ERα protein expression in PAEC; assay type: cell-based, porcine; conditions: oligomer 10^−6 mol/L, vs PBS-treated cells
Procedure: as §1

ERβ [3] = assay: Western blot of ERβ protein expression in PAEC; assay type: cell-based, porcine; conditions: oligomer 10^−6 mol/L, vs PBS-treated cells
Procedure: as §1

ERβ [4] = assay: Western blot of ERβ protein expression in PSMC; assay type: cell-based, porcine; conditions: oligomer 10^−6 mol/L, vs PBS-treated cells
Procedure: as §1

[5] = test system: Porcine aortic endothelial cells (PAEC); assay: Chemotactic assay on PAEC (modified Boyden chamber); assay type: cell-based; conditions: 5 hrs
Procedure: (§2) Cell migration was evaluated using a modified Boyden 48-well microchamber kit (NeuroProbe, Cabin John, MD.). Near confluent EC and PSMC were rinsed with DMEM and trypsinized. Cells were resuspended in DMEM, 5% FBS, and antibiotics, and a cell count was obtained. […] ER antagonists were added 5 minutes before 17βE. Cells were harvested by trypsinization and resuspended in DMEM, 1% FBS, and antibiotics at a concentration of 5×10^5 cells/ml. […] The two sections of the system were separated by a porous polycarbonate filter (5-μm pores), pre-treated with a gelatine solution (1.5 mg/ml), and assembled. Five hours post incubation at 37° C., the nonmigrated cells were scraped with a plastic policeman, and the migrated cells were stained using a Quick-Diff solution. The filter was then mounted on a glass slide, and migrated cells were counted using a microscope adapted to a video camera to obtain a computer-digitized image.
(§3) Cell migration was evaluated using a modified Boyden 48-well microchamber kit (NeuroProbe, Cabin John, MD.). Near confluent PAEC and PSMC were rinsed with DMEM and trypsinized. Cells were resuspended in DMEM, 5% FBS, and antibiotics, and a cell count was obtained. PAEC and PSMC were seeded at 2.5×10^5 cells/well of 6-well tissue culture plates; stimulated for 24 hours in DMEM, 5% FBS, and antibiotics with or without antisense oligomers (10^−6 mol/L) and starved for 48 hours in DMEM, 0.1% FBS, and antibiotics with or without antisense oligomers (10^−6 mol/L daily) with or without 17βE (10^−8 mol/L). Cells were harvested by trypsinization and resuspended in DMEM, 1% FBS, and antibiotics at a concentration of 5×10^5 cells/mL. Fifty μL of this cell suspension with or without antisense oligomers (10^−6 mol/L) treated with or without 17βE (10^−8 mol/L) was added in the higher-chamber of the modified Boyden chamber apparatus, and the lower chamber was filled with DMEM, 1% FBS, antibiotics plus the desired concentration of agonist either 17βE (10^−8 mol/L) or platelet-derived growth factor-BB (PDGF-BB). The 2 sections of the system were separated by a porous polycarbonate filter (5-μm pores size), pretreated with a gelatine solution (1.5 mg/mL), and assembled. Five hours postincubation at 37° C., the non-migrated cells were scraped with a plastic policeman, and the migrated cells were stained using a Quick-Diff solution (Shandon Inc). The filter was then mounted on a glass slide, and migrated cells were counted using a microscope adapted to a video camera to obtain a computer-digitized image.

[6] = test system: Porcine smooth muscle cells (PSMC); assay: Chemotactic assay on PSMC (modified Boyden chamber); assay type: cell-based; conditions: 5 hours
Procedure: as §2, §3

| Molecule | inhibition of basal ERα protein expression (ERα [1]) | inhibition of basal ERα protein expression (ERα [2]) | inhibition of basal ERβ protein expression (ERβ [3]) | inhibition of basal ERβ protein expression (ERβ [4]) | also measured |
| --- | --- | --- | --- | --- | --- |
| AS1-ERα: antisense oligonucleotide, phosphothioate backbone, targeting porcine ERα mRNA: 5′-CTC GTT GGC TTG GAT CTG-3′ (antisense CTCGTTGGCTTGGATCTG; DNA, all phosphorothioate, methylation of C not given here) | 88% | 94% |  |  |  |
| AS1-ERβ: antisense oligonucleotide, phosphothioate backbone, targeting porcine ERβ mRNA: 5′-GTA GGA GAC AGG AGA GTT-3′ (antisense GTAGGAGACAGGAGAGTT; DNA, all phosphorothioate, methylation of C not given here) |  |  | 90% | 84% |  |
| AS2-ERα: antisense oligonucleotide, phosphothioate backbone, targeting porcine ERα mRNA: 5′-GAC GCT TTG GTG TGT AGG-3′ (antisense GACGCTTTGGTGTGTAGG; DNA, all phosphorothioate, methylation of C not given here) | 89% | 95% |  |  |  |
| AS2-ERβ: antisense oligonucleotide, phosphothioate backbone, targeting porcine ERβ mRNA: 5′-GCT AAA GGA GAG AGG TGT-3′ (antisense GCTAAAGGAGAGAGGTGT; DNA, all phosphorothioate, methylation of C not given here) |  |  | 97% | 92% |  |
| SCR-ERα: scrambled phosphothioate sequence, negative control: 5′-TGT AGC TCG GTT CTG TCG-3′ (TGTAGCTCGGTTCTGTCG; DNA, all phosphorothioate, methylation of C not given here) | no suppressing effect | no suppressing effect |  |  |  |
| SCR-ERβ: scrambled phosphothioate sequence, negative control: 5′-GAG TGG ACG TGA AGA AGT-3′ (GAGTGGACGTGAAGAAGT; DNA, all phosphorothioate, methylation of C not given here) |  |  | no suppressing effect | no suppressing effect |  |
| bFGF: basic fibroblast growth factor, chemotactic agonist for PAEC |  |  |  |  | induction of PAEC migration as compared to DMEM 1% ([5]; bFGF 1 ng/ml): 46%; induction of PAEC migration as compared to DMEM 1% ([5]; bFGF 5 ng/ml): 124%; induction of PAEC migration as compared to DMEM 1% ([5]; bFGF 10 ng/ml): 114% |
| B1 |  |  |  |  | induction of PSMC migration as compared to DMEM 1% ([6]; PDGF-BB 1 ng/ml): 96%; induction of PSMC migration as compared to DMEM 1% ([6]; PDGF-BB 5 ng/ml): 137%; induction of PSMC migration as compared to DMEM 1% ([6]; PDGF-BB 10 ng/mL, Example 2): 199%; induction of PSMC migration as compared to DMEM 1% ([6]; PDGF-BB 10 ng/ml, Example 1): 202% |

Reference: patent US7235534B2, “Antisense strategy to modulate estrogen receptor response (ER α and/or ER β )” (Institut de Cardiologie de Montreal, priority 2001, dated 2007)
